Reference: US7378545B2, “Crystallization of amino acids using ultrasonic agitation” (Abbott Laboratories, priority 2002, dated 2008)

Tests used:
Format in all cases: physicochemical
[1] = Effect of ultrasonification on crystallization, particle size by Aerosizer time-of-flight (2000 W, 20 kHz sonotrode)
From the text: L-thyroxine crystals were obtained by batch-wise cooling crystallization of a standard solution of L-thyroxine.
To crystallize L-thyroxine, the standard solution of L-thyroxine was heated to a specified temperature, introduced into a crystallizer and cooled at a controlled rate. As the solution cooled and L-thyroxine crystallized, the solution was exposed to ultrasonification.
A sonotrode complete with generator and transducer capable of emitting an radial ultrasonic pressure wave at a 20 kHz frequency and 2000 W of power (UIP 2000 industrial processor with block sonotrode) was mounted in the crystallizer. The L-thyroxine solution was prepared and agitated at 20 RPM. The temperature was stabilized at 50° C., and the ultrasonic generator was turned on in continuous mode and at 100% amplitude. The cooling sequence was then initiated and the temperature of the solution was lowered at 0.5° C. per minute to a final set point of 10° C. The period of time that the ultrasound was applied to the solution as it was cooling to this set point was varied. For the first trial, a controlled crystallization was allowed to occur without any application of ultrasound to the product solution. For the second trial, the ultrasound remained on until a temperature of 30° C. was reached. At this point the ultrasound was turned off while the solution continued to cool to 10° C. When 10° C. was reached, the slurry was sampled and heated back up to 50° C. to redissolve the solid. The third trial proceeded in the same manner, but when the solution reached a temperature of 26° C., the ultrasound was turned off and the solution continued to cool to 10° C. The trials continued in this manner, changing the temperature at which the ultrasound was turned off by 4° C. each time until for the last trial, the solution was sonified throughout cooling. During this last trial, ultrasound was maintained at the cooling set point for a period of one hour, with samples being pulled at the half hour and one hour mark. This slurry was then transferred to a filter dryer for filtering, washing and drying. Once the product was dry, a sample was taken to determine the additional effects on particle size of the manufacturing process downstream of the crystallizer.
Particle size analysis for all samples was performed with an Aerosizer aerodynamic time-of-flight particle-sizing instrument.
Samples for all of the trials shown in the table above were taken from the crystallizer in the slurry form. A portion of these slurry samples was filtered, washed with ethanol and dried at ambient temperature. A reduction in particle size on a volume basis was apparent between trial 1, which underwent no sonification, and trials 2-7, which underwent various periods of ultrasound application. The magnitude of this reduction is roughly three fold.

[2] = Effect of ultrasonification intensity on crystal size (22 L crystallizer, 24 kHz sonotrode)
Protocol: In order to verify the findings from Example 5, additional experiments were carried out in a 22 L double-jacket glass crystallizer equipped with a draft tube and a 200 mm marine type propeller (Ne=0.3). A custom-made sonotrode (24 kHz) was used along with a UIP250 sound generator. In this example, the exact sonification power was not determined, although it was estimated to be in the order of 25-50 W. The findings are illustrated in Table 7.

[3] = Nucleation temperature / metastable zone during cooling of L-thyroxine solutions
From the text: The extent of the metastable zone depends on the rate of cooling. The lower the cooling rate, the higher the temperature at which nucleation begins.

[4] = Parametric sensitivity of L-thyroxine crystallization, particle size (one liter glass crystallizer, no ultrasound)
Protocol: The following trials were conducted to test the effects of various parameters other than ultrasonification on the crystallization of L-thyroxine. These trials were performed in a one liter glass crystallizer equipped with three baffles and a 60 mm marine type propeller (Ne=0.4). While most trials were run with the standard solution given in Example 1, propanol concentration was varied in trials 5 and 6. The final temperature for all trials was 10° C.

[5] = Effect of ultrasonification intensity on crystal size (one-liter flask in ultrasonic bath, ≈40 kHz); details: for C.V. Coefficient of variation = (X86 − X14)/(2 * X50): unit assumed
Protocol: A one-liter round bottom glass flask was filled with the standard L-thyroxine solution and cooled under stirring. The flask was then immersed in an ultrasonic bath (Sonorex Super Bandelin DK102, ≈40 kHz) to study the influence of different sonification intensities on the size of L-thyroxine crystals. The frequency and power dissipated by the bath was measured using a hydrophone. As an additional parameter, the onset point of sonification and its duration was also varied.

[6] = Solubility of L-thyroxine in standard solution (cooling/redissolving, light probe)
Protocol: The solubility of L-thyroxine was determined by studying a standard solution of L-thyroxine.
The L-thyroxine solution was then transferred to a glass crystallizer and cooled until the L-thyroxine crystallized spontaneously. Then, the temperature of the solution was slowly raised until the crystallized L-thyroxine was redissolved. The crystallization status of the solution was determined using a light probe. The light probe was comprised of two parallel rods with a light source and a photocell. The light probe measured the amount of crystals in the solution by determining the change in the amount of light that was absorbed or scattered by the solution. In solutions with crystals, the photocells registered a weakened beam as compared to beams sent through clear solutions.
Data obtained from these experiments is plotted in FIG. 1. The solubility of L-thyroxine in the standard solution is given by black circles, interpolated by the solid line.
The temperature of saturation at standard conditions (4.84% w/w) was 42° C. […] A theoretical yield of 83% of L-thyroxine was calculated. […] At a concentration of 20% propanol or 4% sodium carbonate, the solubility of L-thyroxine at lower temperatures was not determined. Under these conditions, sodium carbonate co-precipitated with sodium L-thyroxine at around 10° C.

[7] = Degradation of L-thyroxine in crystallization solution at elevated temperature; details: concentrations above 10% not feasible
Protocol: Concentrations of L-thyroxine above 10% were not feasible due to degradation at above 65° C.

[8] = trial 1: ultrasound off, cooled 50 to 10° C. at 0.5° C. per minute
[9] = trial 2: ultrasound on at 50° C., off at 30° C.
[10] = trial 3: ultrasound on at 50° C., off at 26° C.
[11] = trial 4: ultrasound on at 50° C., off at 22° C.
[12] = trial 5: ultrasound on at 50° C., off at 18° C.
[13] = trial 6: ultrasound on at 50° C., off at 14° C.
[14] = trial 7: ultrasound on at 50° C., off at 10° C.
[15] = trial 3: 10% US switched on at 32.5° C. (1K above expected nucleation temperature)
[16] = trial 5: 50% US switched on at 32.5° C.
[17] = trial 6: 100% US (roughly 0.18 W/cm^2)
[18] = trial 7: 100% US switched on at 32.5° C.
[19] = trial 8: 100% US switched off immediately after nucleation

N[C@@H](Cc1cc(I)c(Oc2cc(I)c(O)c(I)c2)c(I)c1)C(=O)O [L-thyroxine]
Mean Particle Size (Number) [1, 8]: 3 µm | Mean Particle Size Volume [1, 8]: 20.8 µm | Mean Particle Size (Number) [1, 9]: 2.4 µm | Mean Particle Size Volume [1, 9]: 6.6 µm | Mean Particle Size (Number) [1, 10]: 2.3 µm | Mean Particle Size Volume [1, 10]: 5.4 µm | Mean Particle Size (Number) [1, 11]: 2.5 µm | Mean Particle Size Volume [1, 11]: 5.7 µm | Mean Particle Size (Number) [1, 12]: 2.4 µm | Mean Particle Size Volume [1, 12]: 5.3 µm | Mean Particle Size (Number) [1, 13]: 2.4 µm | Mean Particle Size Volume [1, 13]: 5.2 µm | Mean Particle Size (Number) [1, 14]: 3.1 µm | Mean Particle Size Volume [1, 14]: 6.1 µm | reduction in particle size on a volume basis ([1]; trials 2-7 (ultrasound) versus trial 1 (no sonification)): roughly three fold | reduction of particle size ([2]; smallest ultrasound intensity versus no ultrasound): 50% | Crystal size ([2]; trial 1: No Ultrasound): 28 μm | Crystal size ([2]; trial 2: 10% Ultrasound): 15 μm | Crystal size ([2]; trial 3: 100% Ultrasound): 14 μm | metastable zone (range of supercooling) ([3]; aqueous solutions during cooling, depends on rate of cooling): 5-11 °C | increase in the temperature at which solids appeared ([3]; plant scale, sonified crystallizations, cooling rate 0.5° C. per minute): 9-18 °C | decrease in the metastable zone ([3]; sonified solution, cooling rate 0.17-0.5° C. per minute): 1-3 °C | Nucleation Temperature ([3]; trial 1: ultrasound off): 25 °C | Nucleation Temperature ([3]; trial 2: ultrasound on): 35 °C | Nucleation Temperature ([3]; trial 3: ultrasound on): 38 °C | Nucleation Temperature ([3]; trial 4: ultrasound on): 38 °C | Nucleation Temperature ([3]; trial 5: ultrasound on): 34 °C | Nucleation Temperature ([3]; trial 6: ultrasound on): 36 °C | Nucleation Temperature ([3]; trial 7: ultrasound on): 34 °C | Particle size ([4]; trial 1: cooling 20/10 K/h, 0.5 W/kg, dried 10 mbar 50° C.): 15 μm | Particle size ([4]; trial 1: cooling 20/10 K/h, 0.5 W/kg, dried 1013 mbar 25° C. openly in lab): 30 μm | Particle size ([4]; trial 2: cooling 20/10 K/h, 5 W/kg (stirrer rate increased 3x), dried 10 mbar 35° C.): 18 μm | Particle size ([4]; trial 3: cooling 30 K/h, 0.5 W/kg, dried 10 mbar 35° C.): 19 μm | Particle size ([4]; trial 4: cooling 30 K/h, 5 W/kg, dried 1013 mbar RT): 10 μm | Particle size ([4]; trial 5: 20% propanol, cooling 30 K/h, 5 W/kg, dried 50 mbar 35° C.): <20 μm | Particle size ([4]; trial 6: 10% propanol, cooling 30 K/h, 5 W/kg, dried 50 mbar 35° C.): >30 μm | Particle size ([4]; trial 7: cooling 30 K/h, 0.5 W/kg, dried 1013 mbar RT, rinsed with 90/10 EtOH/water): 16 μm | Particle size ([4]; trial 8: cooling 30 K/h, 5 W/kg, dried 50 mbar 35° C., rinsed with 90/10 EtOH/water): 11 μm | Particle size ([4]; trial 9: cooling 30 K/h, 2 W/kg, dried 50 mbar 35° C., rinsed with 90/10 EtOH/water): 13 μm | Particle size ([4]; trial 10: as above, 1 hour stirring at final temperature): 15 μm | Particle size ([4]; trial 10: as above, 2 hour stirring at final temperature): 15 μm | Particle size ([4]; trial 10: cooling 30 K/h, 0.5 W/kg, dried 50 mbar 35° C.): 15 μm | Average Size ([5]; trial 1: 0% US intensity): 46 μm | Undercooling ([5]; trial 1: 0% US intensity): 13.6 °C | C.V. Coefficient of variation = (X86 − X14)/(2 * X50) ([5]; trial 1: 0% US intensity): 74% | Average Size ([5]; trial 2: 10% US): 13 μm | Undercooling ([5]; trial 2: 10% US): 12.1 °C | C.V. Coefficient of variation = (X86 − X14)/(2 * X50) ([5]; trial 2: 10% US): 70% | Average Size [5, 15]: 11 μm | Undercooling [5, 15]: 12.8 °C | C.V. Coefficient of variation = (X86 − X14)/(2 * X50) ([5]; trial 3: 10% US switched on at 32.5° C.): 84% | Average Size ([5]; trial 4: 50% US): 13 μm | Undercooling ([5]; trial 4: 50% US): 10.6 °C | C.V. Coefficient of variation = (X86 − X14)/(2 * X50) ([5]; trial 4: 50% US): 65% | Average Size [5, 16]: 11 μm | Undercooling [5, 16]: 12.5 °C | C.V. Coefficient of variation = (X86 − X14)/(2 * X50) [5, 16]: 69% | Average Size [5, 17]: 11 μm | Undercooling [5, 17]: 11.9 °C | C.V. Coefficient of variation = (X86 − X14)/(2 * X50) ([5]; trial 6: 100% US): 61% | Average Size [5, 18]: 11 μm | Undercooling [5, 18]: 12.5 °C | C.V. Coefficient of variation = (X86 − X14)/(2 * X50) [5, 18]: 62% | Average Size [5, 19]: 22 μm | Undercooling [5, 19]: 10.9 °C | C.V. Coefficient of variation = (X86 − X14)/(2 * X50) [5, 19]: 74% | effect of solution composition on solubility ([6]; higher sodium carbonate or propanol concentrations): the inverse effect is observed | effect of solution composition on solubility ([6]; reduction of sodium carbonate or propanol content of the initial solution): reduces L-thyroxine solubility | temperature of saturation ([6]; standard solution, 4.84% w/w L-thyroxine, 14.0% n-propanol, 2.85% sodium carbonate): 42 °C | solubility ([6]; standard solution, end of the cooling curve, 10° C.): 0.78% | temperature of degradation [7]: above 65 °C

N[C@@H](Cc1cc(I)c(Oc2cc(I)c(O)c(I)c2)c(I)c1)C(=O)O.[Na] [sodium L-thyroxine]
point of nucleation of the aqueous solution ([3]; in the absence of ultrasound): approximately 32 °C
